system: Lipaphis erysimi; test: Antifeedant activity against apterous adult stage of Lipaphis erysimi (mustard aphids) in compound pre-treated cabbage leaves assessed as antifeedant ratio measured after 48 hr; assay type: functional

SMILES | Ratio
CC1=CCC(C(C)(C)O)CC1O (stereo unspecified) [SOBREROL] | 0.463
CCC(=O)OC1CC(C)CCC1C(C)C (stereo unspecified) | 0.505
CCC(=O)OCCC1=CCC2CC1C2(C)C (stereo unspecified) | 0.63
CC1CCC(C(C)C)C(O)C1 (stereo unspecified) [MENTHOL] | 0.584
CC(=O)OCCC1C2CCC(C2)C1(C)C (stereo unspecified) | 0.628
CC(=O)OCCC1=CCC2CC1C2(C)C (stereo unspecified) | 0.572
CCCC(CCCC1C2CCC(C2)C1(C)C)OC(C)=O (stereo unspecified) | 0.813
CCC(CCCC1C2CCC(C2)C1(C)C)OC(C)=O (stereo unspecified) | 0.83
CC1(C)C2CC=C(CCOC=O)C1C2 (stereo unspecified) | 0.518
CC(=O)OC1CC(C)CCC1C(C)C (stereo unspecified) | 0.533
CCC(CCC1C2CCC(C2)C1(C)C)C(C)OC(C)=O (stereo unspecified) | 0.786
CC1(C)C2CC3OC3(C)C1C2 (stereo unspecified) | 0.415
CCC(=O)OC1CC(C(C)(C)O)CC=C1C (stereo unspecified) | 0.526
CC1=CCC(C(C)(C)O)CC1OC=O (stereo unspecified) | 0.42
CC(=O)OC1CC(C(C)(C)O)CC=C1C (stereo unspecified) | 0.476
C=C(C)C1CC=C(CCOC(C)=O)CC1 (stereo unspecified) | 0.674
C=C(C)C1CC=C(CCOC(=O)CC)CC1 (stereo unspecified) | 0.701
CC1(C)C2CC=C(CCO)C1C2 (stereo unspecified) [Nopol] | 0.47
CCCOCCC1=CCC2CC1C2(C)C (stereo unspecified) | 0.504
COCCC1=CCC2CC1C2(C)C (stereo unspecified) | 0.548
CCOCCC1=CCC2CC1C2(C)C (stereo unspecified) | 0.522

Reference: ChEMBL document CHEMBL3045638, “Quantitative structure-activity relationship of terpenoid aphid antifeedants” (2008)
